Measured values published in PubChem BioAssay (NCI).
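Cells were grown in 96-well plates and exposed to each compound for 48 hours at five concentrations; endpoints were interpolated linearly between bracketing concentrations, or set to the highest concentration if not reached. At the TGI there is no net growth.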

Columns and labels:
Assay in all cases: growth of human tumour cells (NCI), 48 h
MOLT-4 leukemia = system: MOLT-4 leukemia
SK-MEL-28 melanoma = system: SK-MEL-28 melanoma
NCI-H226 lung = system: NCI-H226 lung
TK-10 renal = system: TK-10 renal
HCC-2998 colon = system: HCC-2998 colon
SK-MEL-2 melanoma = system: SK-MEL-2 melanoma
NCI-H23 lung = system: NCI-H23 lung
NCI-H522 lung = system: NCI-H522 lung
OVCAR-4 ovarian = system: OVCAR-4 ovarian
COLO 205 colon = system: COLO 205 colon
KM12 colon = system: KM12 colon
RPMI-8226 leukemia = system: RPMI-8226 leukemia
BT-549 breast = system: BT-549 breast
HOP-62 NSCLC = system: HOP-62 NSCLC
MALME-3M melanoma = system: MALME-3M melanoma
HT29 colon = system: HT29 colon
LOX IMVI melanoma = system: LOX IMVI melanoma
A498 renal = system: A498 renal
MDA-N = system: MDA-N
MDA-MB-231 breast = system: MDA-MB-231 breast
HCT-15 colon = system: HCT-15 colon
HOP-92 NSCLC = system: HOP-92 NSCLC
SNB-75 CNS = system: SNB-75 CNS
HS 578T breast = system: HS 578T breast
NCI/ADR-RES ovarian = system: NCI/ADR-RES ovarian
OVCAR-3 ovarian = system: OVCAR-3 ovarian
PC-3 prostate = system: PC-3 prostate
OVCAR-8 ovarian = system: OVCAR-8 ovarian
A549 NSCLC = system: A549 NSCLC
U251 CNS = system: U251 CNS
RXF 393 renal = system: RXF 393 renal
HCT-116 colon = system: HCT-116 colon
SNB-19 CNS = system: SNB-19 CNS
ACHN renal = system: ACHN renal
NCI-H460 lung = system: NCI-H460 lung
IGROV1 ovarian = system: IGROV1 ovarian
SF-268 CNS = system: SF-268 CNS
CCRF-CEM leukemia = system: CCRF-CEM leukemia
UACC-257 melanoma = system: UACC-257 melanoma
T-47D breast = system: T-47D breast
M14 melanoma = system: M14 melanoma
OVCAR-5 ovarian = system: OVCAR-5 ovarian
SN12C renal = system: SN12C renal
CAKI-1 renal = system: CAKI-1 renal
DU-145 prostate = system: DU-145 prostate
UO-31 renal = system: UO-31 renal
MDA-MB-435 = system: MDA-MB-435
K-562 leukemia = system: K-562 leukemia
UACC-62 melanoma = system: UACC-62 melanoma
SK-OV-3 ovarian = system: SK-OV-3 ovarian
SW-620 colon = system: SW-620 colon
786-0 renal = system: 786-0 renal
SF-295 CNS = system: SF-295 CNS
SK-MEL-5 melanoma = system: SK-MEL-5 melanoma
SF-539 CNS = system: SF-539 CNS
SR leukemia = system: SR leukemia
MCF7 breast = system: MCF7 breast
EKVX NSCLC = system: EKVX NSCLC
HL-60(TB) leukemia = system: HL-60(TB) leukemia

CNc1nc(SC)nc2c1c(N)nn2C
TGI (MOLT-4 leukemia): > 100 µM | TGI (SK-MEL-28 melanoma): > 100 µM | TGI (NCI-H226 lung): > 100 µM | TGI (TK-10 renal): > 100 µM | TGI (HCC-2998 colon): > 100 µM | TGI (SK-MEL-2 melanoma): > 100 µM | TGI (NCI-H23 lung): > 100 µM | TGI (NCI-H522 lung): > 100 µM | TGI (OVCAR-4 ovarian): > 100 µM | TGI (COLO 205 colon): > 100 µM | TGI (KM12 colon): > 100 µM | TGI (RPMI-8226 leukemia): > 100 µM | TGI (BT-549 breast): > 100 µM | TGI (HOP-62 NSCLC): > 100 µM | TGI (MALME-3M melanoma): > 100 µM | TGI (HT29 colon): > 100 µM | TGI (LOX IMVI melanoma): > 100 µM | TGI (A498 renal): > 100 µM | TGI (MDA-N): > 100 µM | TGI (MDA-MB-231 breast): > 100 µM | TGI (HCT-15 colon): > 100 µM | TGI (HOP-92 NSCLC): > 100 µM | TGI (SNB-75 CNS): > 100 µM | TGI (HS 578T breast): > 100 µM | TGI (NCI/ADR-RES ovarian): > 100 µM | TGI (OVCAR-3 ovarian): > 100 µM | TGI (PC-3 prostate): > 100 µM | TGI (OVCAR-8 ovarian): > 100 µM | TGI (A549 NSCLC): > 100 µM | TGI (U251 CNS): > 100 µM | TGI (RXF 393 renal): > 100 µM | TGI (HCT-116 colon): > 100 µM | TGI (SNB-19 CNS): > 100 µM | TGI (ACHN renal): > 100 µM | TGI (NCI-H460 lung): > 100 µM | TGI (IGROV1 ovarian): > 100 µM | TGI (SF-268 CNS): > 100 µM | TGI (CCRF-CEM leukemia): > 100 µM | TGI (UACC-257 melanoma): > 100 µM | TGI (T-47D breast): > 100 µM | TGI (M14 melanoma): > 100 µM | TGI (OVCAR-5 ovarian): > 100 µM | TGI (SN12C renal): > 100 µM | TGI (CAKI-1 renal): > 100 µM | TGI (DU-145 prostate): > 100 µM | TGI (UO-31 renal): > 100 µM | TGI (MDA-MB-435): > 100 µM | TGI (K-562 leukemia): > 100 µM | TGI (UACC-62 melanoma): > 100 µM | TGI (SK-OV-3 ovarian): > 100 µM | TGI (SW-620 colon): > 100 µM | TGI (786-0 renal): > 100 µM | TGI (SF-295 CNS): > 100 µM | TGI (SK-MEL-5 melanoma): > 100 µM

Brc1ccc(N=NN2CCCC2)cc1
TGI (MOLT-4 leukemia): > 100 µM | TGI (SK-MEL-28 melanoma): > 100 µM | TGI (NCI-H226 lung): > 100 µM | TGI (TK-10 renal): > 100 µM | TGI (HCC-2998 colon): > 100 µM | TGI (SK-MEL-2 melanoma): > 100 µM | TGI (NCI-H23 lung): > 100 µM | TGI (SF-539 CNS): > 100 µM | TGI (NCI-H522 lung): > 100 µM | TGI (OVCAR-4 ovarian): > 100 µM | TGI (COLO 205 colon): > 100 µM | TGI (KM12 colon): > 100 µM | TGI (RPMI-8226 leukemia): > 100 µM | TGI (BT-549 breast): > 100 µM | TGI (HOP-62 NSCLC): > 100 µM | TGI (MALME-3M melanoma): > 100 µM | TGI (HT29 colon): > 100 µM | TGI (SR leukemia): > 100 µM | TGI (LOX IMVI melanoma): > 100 µM | TGI (A498 renal): > 100 µM | TGI (MDA-N): > 100 µM | TGI (MDA-MB-231 breast): > 100 µM | TGI (HCT-15 colon): > 100 µM | TGI (HOP-92 NSCLC): > 100 µM | TGI (HS 578T breast): > 100 µM | TGI (OVCAR-3 ovarian): > 100 µM | TGI (PC-3 prostate): > 100 µM | TGI (MCF7 breast): > 100 µM | TGI (A549 NSCLC): > 100 µM | TGI (U251 CNS): > 100 µM | TGI (RXF 393 renal): > 100 µM | TGI (HCT-116 colon): > 100 µM | TGI (SNB-19 CNS): > 100 µM | TGI (ACHN renal): > 100 µM | TGI (NCI-H460 lung): > 100 µM | TGI (EKVX NSCLC): > 100 µM | TGI (IGROV1 ovarian): > 100 µM | TGI (SF-268 CNS): > 100 µM | TGI (CCRF-CEM leukemia): > 100 µM | TGI (UACC-257 melanoma): > 100 µM | TGI (T-47D breast): 97.3 µM | TGI (M14 melanoma): > 100 µM | TGI (OVCAR-5 ovarian): > 100 µM | TGI (HL-60(TB) leukemia): > 100 µM | TGI (SN12C renal): > 100 µM | TGI (CAKI-1 renal): > 100 µM | TGI (DU-145 prostate): > 100 µM | TGI (UO-31 renal): > 100 µM | TGI (MDA-MB-435): > 100 µM | TGI (K-562 leukemia): > 100 µM | TGI (UACC-62 melanoma): > 100 µM | TGI (SK-OV-3 ovarian): > 100 µM | TGI (SW-620 colon): > 100 µM | TGI (786-0 renal): > 100 µM | TGI (SF-295 CNS): > 100 µM | TGI (SK-MEL-5 melanoma): > 100 µM

CC(C)(C)OC(=O)N1CCCC1=O
TGI (MOLT-4 leukemia): > 10 µM | TGI (SK-MEL-28 melanoma): > 10 µM | TGI (NCI-H226 lung): > 10 µM | TGI (TK-10 renal): > 10 µM | TGI (HCC-2998 colon): > 10 µM | TGI (SK-MEL-2 melanoma): > 10 µM | TGI (NCI-H23 lung): > 10 µM | TGI (SF-539 CNS): > 10 µM | TGI (KM12 colon): > 10 µM | TGI (RPMI-8226 leukemia): > 10 µM | TGI (BT-549 breast): > 10 µM | TGI (HOP-62 NSCLC): > 10 µM | TGI (MALME-3M melanoma): > 10 µM | TGI (HT29 colon): > 10 µM | TGI (SR leukemia): > 10 µM | TGI (LOX IMVI melanoma): > 10 µM | TGI (A498 renal): > 10 µM | TGI (MDA-N): > 10 µM | TGI (MDA-MB-231 breast): > 10 µM | TGI (HCT-15 colon): > 10 µM | TGI (HOP-92 NSCLC): > 10 µM | TGI (SNB-75 CNS): > 10 µM | TGI (HS 578T breast): > 10 µM | TGI (OVCAR-3 ovarian): > 10 µM | TGI (PC-3 prostate): > 10 µM | TGI (MCF7 breast): > 10 µM | TGI (OVCAR-8 ovarian): > 10 µM | TGI (A549 NSCLC): > 10 µM | TGI (U251 CNS): > 10 µM | TGI (RXF 393 renal): > 10 µM | TGI (HCT-116 colon): > 10 µM | TGI (SNB-19 CNS): > 10 µM | TGI (ACHN renal): > 10 µM | TGI (NCI-H460 lung): > 10 µM | TGI (EKVX NSCLC): > 10 µM | TGI (IGROV1 ovarian): > 10 µM | TGI (SF-268 CNS): > 10 µM | TGI (CCRF-CEM leukemia): > 10 µM | TGI (UACC-257 melanoma): > 10 µM | TGI (T-47D breast): > 10 µM | TGI (M14 melanoma): > 10 µM | TGI (OVCAR-5 ovarian): > 10 µM | TGI (HL-60(TB) leukemia): > 10 µM | TGI (SN12C renal): > 10 µM | TGI (DU-145 prostate): > 10 µM | TGI (UO-31 renal): > 10 µM | TGI (MDA-MB-435): > 10 µM | TGI (K-562 leukemia): > 10 µM | TGI (UACC-62 melanoma): > 10 µM | TGI (SK-OV-3 ovarian): > 10 µM | TGI (SW-620 colon): > 10 µM | TGI (786-0 renal): > 10 µM | TGI (SF-295 CNS): > 10 µM | TGI (SK-MEL-5 melanoma): > 10 µM
